Molecular target: T1, ACVRL1 (ALK1) (Homo sapiens, UniProt P37023)
T1 construct: purchased Thermo Fisher Scientific (Life Technologies) SelectScreen
Test: SelectScreen LanthaScreen
Type: binding
Settings: read-out: % displacement
Summary of the method: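 SelectScreen broad panel; activity (Z'LYTE, Adapta) plus binding formats. ATP: Km app for CSF1R Z'LYTE; 10 for CAMK1 Adapta. Readout = % per kinase.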

T1 sequence (P37023 22-503): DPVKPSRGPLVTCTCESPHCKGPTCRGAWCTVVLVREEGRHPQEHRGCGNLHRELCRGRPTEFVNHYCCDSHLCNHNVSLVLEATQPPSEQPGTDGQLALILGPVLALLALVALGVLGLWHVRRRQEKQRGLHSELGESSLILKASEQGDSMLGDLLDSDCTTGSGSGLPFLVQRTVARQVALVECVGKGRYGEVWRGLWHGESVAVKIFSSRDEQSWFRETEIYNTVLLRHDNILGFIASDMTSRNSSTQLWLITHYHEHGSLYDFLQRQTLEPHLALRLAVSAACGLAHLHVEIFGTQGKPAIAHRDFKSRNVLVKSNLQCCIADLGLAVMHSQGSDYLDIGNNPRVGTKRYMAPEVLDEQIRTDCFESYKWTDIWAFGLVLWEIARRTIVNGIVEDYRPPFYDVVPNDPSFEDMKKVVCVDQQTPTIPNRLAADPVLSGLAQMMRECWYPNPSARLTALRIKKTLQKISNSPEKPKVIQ

CN(C(=O)CN1CCOCC1)c1ccc2sc3c(-c4cccc5c(=O)cc(N6CC7CCC(C6)O7)oc45)cccc3c2c1 [NU5455]
inhibition at 1 µM: 2.3%

— publication PMC6934184, “Selective DNA-PKcs inhibition extends the therapeutic index of localized radiotherapy and chemotherapy” (The Journal of Clinical Investigation, 2019)
